Test results as given in US12492173B2, “Herbicidal substituted N-tetrazolyl aryl carboxamides” (Bayer Aktiengesellschaft, priority 2019, dated 2025).

Assays:
Assay type in all cases: in vivo
Abutilon theophrasti [1] = assay: Pre-emergence herbicidal action, ABUTH; conditions: dosage 320 g/ha; for herbicidal activity ABUTH: scored visually after 3 weeks vs untreated controls (100% = plants have died)
Method in brief: (§1)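 Herbicidal activity is expressed in percent, scored by eye after a 3-week greenhouse period, with 0% matching untreated plants and 100% meaning death. Compounds, as wettable powders or emulsion concentrates, are applied pre-emergence to the covering soil.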

Abutilon theophrasti [2] = assay: Post-emergence herbicidal action, ABUTH; design: key: % herbicidal action vs untreated; 100 = plants died, 0 = like control; conditions: for herbicidal action ABUTH: Dosage 80 g/ha
Method in brief: (§2)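 Greenhouse post-emergence test: weeds sown in sandy loam were sprayed once at one leaf, 2 to 3 weeks from sowing, with aqueous WP or EC preparations carrying 0.2% wetting agent. Effect is scored visually after about 3 weeks.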

Alopecurus myosuroides = assay: Post-emergence herbicidal action, ALOMY; design: key: % herbicidal action vs untreated; 100 = plants died, 0 = like control; conditions: Dosage 80 g/ha
Method in brief: as §2

Echinochloa crus-galli = assay: Post-emergence herbicidal action, ECHCG; design: key: % herbicidal action vs untreated; 100 = plants died, 0 = like control; conditions: for herbicidal action ECHCG: Dosage 80 g/ha; for Herbicidal action against ECHCG: post-emergence, dosage 80 g/ha
Method in brief: as §2

Veronica persica = assay: Post-emergence herbicidal action, VERPE; design: key: % herbicidal action vs untreated; 100 = plants died, 0 = like control; conditions: for herbicidal action VERPE: Dosage 80 g/ha; for Herbicidal action against VERPE: post-emergence, dosage 80 g/ha
Method in brief: as §2

Viola tricolor = assay: Post-emergence herbicidal action, VIOTR; design: key: % herbicidal action vs untreated; 100 = plants died, 0 = like control; conditions: for herbicidal action VIOTR: Dosage 80 g/ha; for Herbicidal action against VIOTR: post-emergence
Method in brief: as §2

Pharbitis purpurea = assay: Pre-emergence herbicidal action, PHBPU; conditions: dosage 320 g/ha, scored visually after 3 weeks vs untreated controls (100% = plants have died)
Method in brief: as §1

Row | Compound | herbicidal action ABUTH (Abutilon theophrasti [1]) | herbicidal action ABUTH (Abutilon theophrasti [2]) | herbicidal action ALOMY (Alopecurus myosuroides) | herbicidal action ECHCG (Echinochloa crus-galli) | herbicidal action VERPE (Veronica persica) | herbicidal action VIOTR (Viola tricolor) | Herbicidal action against ABUTH (Abutilon theophrasti [2]; post-emergence, dosage 80 g/ha) | Herbicidal action against ECHCG (Echinochloa crus-galli) | Herbicidal action against VERPE (Veronica persica) | Herbicidal action against VIOTR (Viola tricolor; comparative experiment, 5 g of a.i./ha) | herbicidal activity ABUTH (Abutilon theophrasti [1]) | herbicidal activity PHBPU (Pharbitis purpurea) | Herbicidal action against VIOTR (Viola tricolor; dosage 80 g/ha)
1 | CCn1nnnc1NC(=O)c1ccc(Cl)c(CSC)c1Cl [Example 2-559] | 100% | 90 | 90 | 100 | 100 | 100 | – | – | – | – | – | – | –
2 | CCCn1nnnc1NC(=O)c1ccc(C(F)(F)F)c(CSC)c1SC [Example 3-161] | 100% | 100 | – | 90 | 100 | 100 | – | – | – | – | – | – | –
3 | COc1c(C(=O)Nc2nnnn2C)ccc(Cl)c1CSC [Example 1-570] | 90% | – | – | – | – | – | 90 | 100 | 90 | 60 | – | – | –
4 | CCCn1nnnc1NC(=O)c1ccc(C(F)(F)F)c(CSCC)c1C [Example 3-86] | 100% | 80 | – | 90 | 80 | 100 | – | – | – | – | – | – | –
5 | Cn1nnnc1NC(=O)c1ccc(C(F)(F)F)c(CS(C)(=O)=O)c1C(F)(F)C(F)(F)F [Example 1-552] | – | 90 | – | 90 | 100 | 90 | – | – | – | – | 100% | 90% | –
6 | CSCc1c(C)ccc(C(=O)Nc2nnnn2C)c1Cl [Example 1-287] | 100% | 100 | 90 | 100 | 100 | 100 | – | – | – | – | – | – | –
7 | CCCn1nnnc1NC(=O)c1ccc(S(C)(=O)=O)c(CSC)c1C [Example 3-37] | 80% | 80 | – | 100 | 100 | 100 | – | – | – | – | – | – | –
8 | CCn1nnnc1NC(=O)c1ccc(S(C)(=O)=O)c(CS(C)(=O)=O)c1Cl [Example 2-280] | 100% | – | – | – | – | – | – | 90 | 80 | – | – | – | 90
9 | CCCn1nnnc1NC(=O)c1ccc(C(F)(F)F)c(CS(C)(=O)=O)c1Br [Example 3-382] | 100% | 100 | – | 90 | 90 | 90 | – | – | – | – | – | – | –
10 | CCn1nnnc1NC(=O)c1ccc(C(F)(F)F)c(CS(=O)(=O)CC)c1Cl [Example 2-301] | 100% | 80 | 80 | 90 | 100 | 100 | – | – | – | – | – | – | –
11 | CCCn1nnnc1NC(=O)c1ccc(C(F)(F)F)c(CSCC(F)(F)F)c1Cl [Example 3-311] | 100% | 100 | 100 | 100 | 80 | 90 | – | – | – | – | – | – | –
12 | CCCn1nnnc1NC(=O)c1ccc(I)c(C[S+](C)[O-])c1Cl (stereo not drawn) [Example 3-363] | 100% | 90 | 80 | 100 | 100 | 100 | – | – | – | – | – | – | –
13 | CCCn1nnnc1NC(=O)c1ccc(C(F)F)c(CS(C)(=O)=O)c1Cl [Example 3-322] | – | 100 | – | 100 | 80 | – | – | – | – | – | 100% | 90% | –
14 | CCn1nnnc1NC(=O)c1ccc(C(F)(F)F)c(CSCC(F)(F)F)c1Cl [Example 2-311] | – | 90 | 90 | 100 | 100 | 100 | – | – | – | – | 100% | – | –
15 | Cc1c(C(=O)Nc2nnnn2C)ccc(C(F)F)c1C[S+](C)[O-] (stereo not drawn) [Example 1-108] | 100% | 80 | – | 80 | 100 | 100 | – | – | – | – | – | – | –
